*1 amine or outer side, *2 acyl side, *3 side chain or, on linkers, in order; H or OH if unused. Where a SMILES comes first, the peptide text is derived from it. Side-chain parts run from the residue outwards. [ ]: non-standard residue; d: D form. The star is where a group is joined. C20 diacid = O=C(O)CCCCCCCCCCCCCCCCCCC(=O)*; γGlu = O=C(O)[C@H](CCC(=O)[*:2])N[*:1]; 4Pal = N[C@@H](Cc1ccncc1)C(=O)O; αMeL = CC(C)C[C@](C)(N)C(=O)O; Iva = CC[C@](C)(N)C(=O)O; Orn = NCCC[C@H](N)C(=O)O; AEEA = NCCOCCOCC(=O)O; Aib = CC(C)(N)C(=O)O
Key:
Experiment in all cases: cAMP functional assay (HTRF) in HEK293 cells in presence of 0.1% casein
Format in all cases: cell-based
[1] = target: T1, human glucose-dependent insulinotropic peptide receptor (GIPR) (Homo sapiens, UniProt P48546); conditions: HEK293 cells expressing human GIPR, geometric mean, read-out: hGIPR cAMP Rel EC50 nM (SEM, n)
T1 construct: expressed in transfected cells; host or cells: HEK293
T1 sequence (P48546 22-466): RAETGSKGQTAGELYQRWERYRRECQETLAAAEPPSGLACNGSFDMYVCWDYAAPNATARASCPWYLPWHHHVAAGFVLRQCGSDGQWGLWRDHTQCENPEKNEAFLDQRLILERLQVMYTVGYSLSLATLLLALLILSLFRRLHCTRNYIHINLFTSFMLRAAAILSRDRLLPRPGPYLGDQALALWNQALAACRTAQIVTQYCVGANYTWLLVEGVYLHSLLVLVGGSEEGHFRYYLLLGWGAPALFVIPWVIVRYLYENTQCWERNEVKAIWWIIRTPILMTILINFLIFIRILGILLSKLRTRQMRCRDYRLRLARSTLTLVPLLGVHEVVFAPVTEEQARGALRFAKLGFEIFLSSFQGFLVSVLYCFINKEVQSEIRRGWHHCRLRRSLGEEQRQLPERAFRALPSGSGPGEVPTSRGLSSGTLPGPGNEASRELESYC

[2] = target: T2, human GLP-1 receptor (GLP-1R) (Homo sapiens, UniProt P43220); conditions: HEK293 cells expressing human GLP-1R, geometric mean, read-out: hGLP1R cAMP Rel EC50 nM (SEM, n)
T2 construct: expressed in transfected cells; host or cells: HEK293

[3] = target: T3, human glucagon receptor (GcgR) (Homo sapiens, UniProt P47871); conditions: HEK293 cells expressing human GcgR, geometric mean, read-out: hGcgR cAMP Rel EC50 nM (SEM, n)
T3 construct: expressed in transfected cells; host or cells: HEK293
T3 sequence (P47871 26-477): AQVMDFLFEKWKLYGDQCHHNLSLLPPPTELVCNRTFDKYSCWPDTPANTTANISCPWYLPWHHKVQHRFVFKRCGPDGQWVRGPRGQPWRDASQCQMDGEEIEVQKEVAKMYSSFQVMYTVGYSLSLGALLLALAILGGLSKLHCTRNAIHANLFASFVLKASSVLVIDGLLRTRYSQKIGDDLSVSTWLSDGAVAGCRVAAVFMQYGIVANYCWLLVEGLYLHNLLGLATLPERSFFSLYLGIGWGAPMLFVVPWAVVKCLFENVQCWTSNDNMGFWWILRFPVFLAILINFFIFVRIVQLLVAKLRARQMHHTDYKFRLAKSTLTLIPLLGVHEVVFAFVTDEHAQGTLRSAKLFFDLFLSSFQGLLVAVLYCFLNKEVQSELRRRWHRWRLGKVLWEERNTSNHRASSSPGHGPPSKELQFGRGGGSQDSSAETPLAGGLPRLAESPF

T2 sequence (P43220 24-463): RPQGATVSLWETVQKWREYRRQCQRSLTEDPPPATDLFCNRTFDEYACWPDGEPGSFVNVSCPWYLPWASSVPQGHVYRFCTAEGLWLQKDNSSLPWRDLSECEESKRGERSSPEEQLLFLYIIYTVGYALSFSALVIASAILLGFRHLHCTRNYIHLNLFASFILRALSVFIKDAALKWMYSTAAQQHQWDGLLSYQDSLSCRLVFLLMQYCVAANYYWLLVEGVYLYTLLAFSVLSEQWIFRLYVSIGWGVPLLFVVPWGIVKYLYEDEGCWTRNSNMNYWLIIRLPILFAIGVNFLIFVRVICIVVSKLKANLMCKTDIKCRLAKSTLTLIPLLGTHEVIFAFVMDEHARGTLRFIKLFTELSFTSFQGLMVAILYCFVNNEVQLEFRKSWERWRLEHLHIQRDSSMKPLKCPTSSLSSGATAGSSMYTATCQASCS

With CC[C@H](C)[C@H](NC(=O)[C@H](Cc1ccccc1)NC(=O)[C@@H](NC(=O)CNC(=O)[C@H](CCC(=O)O)NC(=O)C(C)(C)NC(=O)[C@@H](N)Cc1ccc(O)cc1)[C@@H](C)O)C(=O)N[C@@H](CO)C(=O)N[C@@H](CC(=O)O)C(=O)N[C@@H](Cc1ccc(O)cc1)C(=O)N[C@@H](CO)C(=O)N[C@H](C(=O)N[C@@](C)(CC(C)C)C(=O)N[C@@H](CC(C)C)C(=O)N[C@@H](CC(=O)O)C(=O)N[C@@H](CCCN)C(=O)N[C@@H](CCCCNC(=O)COCCOCCNC(=O)COCCOCCNC(=O)CC[C@H](NC(=O)CCCCCCCCCCCCCCCCCCC(=O)O)C(=O)O)C(=O)N[C@@H](Cc1c[nH]cn1)C(=O)N[C@@H](CCC(N)=O)C(=O)NC(C)(C)C(=O)N[C@@H](CC(=O)O)C(=O)N[C@@H](Cc1ccccc1)C(=O)N[C@H](C(=O)N[C@@H](CCC(=O)O)C(=O)N[C@@H](Cc1ccncc1)C(=O)N[C@@H](CC(C)C)C(=O)N[C@@H](CC(C)C)C(=O)N[C@@H](CCC(=O)O)C(=O)N[C@@H](C)C(=O)NCC(=O)N1CCC[C@H]1C(=O)N[C@@H](CO)C(=O)N[C@@H](CO)C(=O)NCC(=O)N[C@@H](C)C(=O)N1CCC[C@H]1C(=O)N1CCC[C@H]1C(=O)N1CCC[C@H]1C(=O)N[C@@H](CO)C(N)=O)C(C)C)[C@@H](C)CC [Example 4] the EC50 [1] was 0.0182 nM, the EC50 [2] was > 5000 nM and the EC50 [3] was 1690 nM.
In the case of CC[C@H](C)[C@H](NC(=O)[C@H](CO)NC(=O)[C@H](Cc1ccc(O)cc1)NC(=O)[C@H](CC(=O)O)NC(=O)[C@H](CO)NC(=O)[C@@H](NC(=O)[C@](C)(CC)NC(=O)[C@@H](NC(=O)CNC(=O)[C@H](CCC(=O)O)NC(=O)C(C)(C)NC(=O)[C@@H](N)Cc1ccc(O)cc1)[C@@H](C)O)[C@@H](C)CC)C(=O)N[C@@](C)(CC(C)C)C(=O)N[C@@H](CC(C)C)C(=O)N[C@@H](CC(=O)O)C(=O)N[C@@H](CCCN)C(=O)N[C@@H](CCCCNC(=O)COCCOCCNC(=O)COCCOCCNC(=O)CC[C@H](NC(=O)CCCCCCCCCCCCCCCCCCC(=O)O)C(=O)O)C(=O)N[C@@H](Cc1c[nH]cn1)C(=O)N[C@@H](CCC(N)=O)C(=O)NC(C)(C)C(=O)N[C@@H](CC(=O)O)C(=O)N[C@@H](Cc1ccccc1)C(=O)N[C@H](C(=O)N[C@@H](CCC(=O)O)C(=O)N[C@@H](Cc1ccncc1)C(=O)N[C@@H](CC(C)C)C(=O)N[C@@H](CC(C)C)C(=O)N[C@@H](CCC(=O)O)C(=O)NCC(=O)NCC(=O)N1CCC[C@H]1C(=O)N[C@@H](CO)C(=O)N[C@@H](CO)C(=O)NCC(=O)N[C@@H](C)C(=O)N1CCC[C@H]1C(=O)N1CCC[C@H]1C(=O)N1CCC[C@H]1C(=O)N[C@@H](CO)C(N)=O)C(C)C [Example 76] (H-Y[Aib]EGT[Iva]ISDYSI[αMeL]LD[Orn]K([AEEA-AEEA-γGlu-C20 diacid])HQ[Aib]DFVE[4Pal]LLEGGPSSGAPPPS-NH2), the EC50 [1] is reported as 0.0154 nM, the EC50 [2] is reported as > 5000 nM and the EC50 [3] is reported as 1200 nM.
For CC[C@H](C)[C@H](NC(=O)[C@H](CC(C)C)NC(=O)[C@@H](NC(=O)CNC(=O)[C@H](CCC(=O)O)NC(=O)C(C)(C)NC(=O)[C@@H](N)Cc1ccc(O)cc1)[C@@H](C)O)C(=O)N[C@@H](CO)C(=O)N[C@@H](CC(=O)O)C(=O)N[C@@H](Cc1ccc(O)cc1)C(=O)N[C@@H](CO)C(=O)N[C@H](C(=O)N[C@@](C)(CC(C)C)C(=O)N[C@@H](CC(C)C)C(=O)N[C@@H](CC(=O)O)C(=O)N[C@@H](CCCCN)C(=O)N[C@@H](CCCCNC(=O)COCCOCCNC(=O)COCCOCCNC(=O)CC[C@H](NC(=O)CCCCCCCCCCCCCCCCCCC(=O)O)C(=O)O)C(=O)N[C@@H](Cc1c[nH]cn1)C(=O)N[C@@H](CCC(N)=O)C(=O)NC(C)(C)C(=O)N[C@@H](CC(=O)O)C(=O)N[C@@H](Cc1ccccc1)C(=O)N[C@H](C(=O)N[C@@H](CCC(=O)O)C(=O)N[C@@H](Cc1ccncc1)C(=O)N[C@@H](CC(C)C)C(=O)N[C@@H](CC(C)C)C(=O)N[C@@H](CCC(=O)O)C(=O)N[C@@H](C)C(=O)NCC(=O)N1CCC[C@H]1C(=O)N[C@@H](CO)C(=O)N[C@@H](CO)C(=O)NCC(=O)N[C@@H](C)C(=O)N1CCC[C@H]1C(=O)N1CCC[C@H]1C(=O)N1CCC[C@H]1C(=O)N[C@@H](CO)C(N)=O)C(C)C)[C@@H](C)CC [Example 89] (H-Y[Aib]EGTLISDYSI[αMeL]LDKK([AEEA-AEEA-γGlu-C20 diacid])HQ[Aib]DFVE[4Pal]LLEAGPSSGAPPPS-NH2), the EC50 [1] was 0.00687 nM, the EC50 [2] was > 5000 nM and the EC50 [3] was > 5000 nM.
With CC[C@H](C)[C@H](NC(=O)[C@H](CCCCN)NC(=O)[C@H](CC(=O)O)NC(=O)[C@H](CC(C)C)NC(=O)[C@](C)(CC(C)C)NC(=O)[C@@H](NC(=O)[C@H](CO)NC(=O)[C@H](Cc1ccc(O)cc1)NC(=O)[C@H](CC(=O)O)NC(=O)[C@H](CO)NC(=O)[C@@H](NC(=O)[C@H](Cc1ccccc1)NC(=O)[C@@H](NC(=O)CNC(=O)[C@H](CCC(=O)O)NC(=O)C(C)(C)NC(=O)[C@@H](N)Cc1ccc(O)cc1)[C@@H](C)O)[C@@H](C)CC)[C@@H](C)CC)C(=O)N[C@@H](Cc1c[nH]cn1)C(=O)N[C@@H](CCC(N)=O)C(=O)NC(C)(C)C(=O)N[C@@H](CC(=O)O)C(=O)N[C@@H](Cc1ccccc1)C(=O)N[C@H](C(=O)N[C@@H](CCC(=O)O)C(=O)N[C@@H](Cc1ccc(O)cc1)C(=O)N[C@@H](CCCCNC(=O)COCCOCCNC(=O)COCCOCCNC(=O)CC[C@H](NC(=O)CCCCCCCCCCCCCCCCCCC(=O)O)C(=O)O)C(=O)N[C@@H](CC(C)C)C(=O)N[C@@H](CCC(=O)O)C(=O)N[C@@H](C)C(=O)NCC(=O)N1CCC[C@H]1C(=O)N[C@@H](CO)C(=O)N[C@@H](CO)C(=O)NCC(=O)N[C@@H](C)C(=O)N1CCC[C@H]1C(=O)N1CCC[C@H]1C(=O)N1CCC[C@H]1C(=O)N[C@@H](CO)C(N)=O)C(C)C [Example 117] (H-Y[Aib]EGTFISDYSI[αMeL]LDKIHQ[Aib]DFVEYK([AEEA-AEEA-γGlu-C20 diacid])LEAGPSSGAPPPS-NH2) the EC50 [1] was 0.0617 nM, the EC50 [2] was > 5000 nM and the EC50 [3] was > 5000 nM.
CC[C@H](C)[C@H](NC(=O)[C@H](CO)NC(=O)[C@H](Cc1ccc(O)cc1)NC(=O)[C@H](CC(=O)O)NC(=O)[C@H](CO)NC(=O)[C@@H](NC(=O)[C@H](Cc1ccccc1)NC(=O)[C@@H](NC(=O)CNC(=O)[C@H](CCC(=O)O)NC(=O)[C@@H](C)NC(=O)[C@@H](N)Cc1ccc(O)cc1)[C@@H](C)O)[C@@H](C)CC)C(=O)N[C@@H](CC(C)C)C(=O)N[C@@H](CC(C)C)C(=O)N[C@@H](CC(=O)O)C(=O)N[C@@H](CCCCN)C(=O)N[C@@H](CCCCNC(=O)COCCOCCNC(=O)COCCOCCNC(=O)CC[C@H](NC(=O)CCCCCCCCCCCCCCCCCCC(=O)O)C(=O)O)C(=O)N[C@@H](Cc1c[nH]cn1)C(=O)N[C@@H](CCC(N)=O)C(=O)NC(C)(C)C(=O)N[C@@H](CC(=O)O)C(=O)N[C@@H](Cc1ccccc1)C(=O)N[C@H](C(=O)N[C@@H](CC(N)=O)C(=O)N[C@@H](Cc1c[nH]c2ccccc12)C(=O)N[C@@H](CC(C)C)C(=O)N[C@@H](CC(C)C)C(=O)N[C@@H](C)C(=O)N[C@@H](CCC(N)=O)C(=O)NCC(=O)N1CCC[C@H]1C(=O)N[C@@H](CO)C(=O)N[C@@H](CO)C(=O)NCC(=O)N[C@@H](C)C(=O)N1CCC[C@H]1C(=O)N1CCC[C@H]1C(=O)N1CCC[C@H]1C(=O)N[C@@H](CO)C(N)=O)C(C)C [Example 9] (H-Y[dA]EGTFISDYSILLDKK([AEEA-AEEA-γGlu-C20 diacid])HQ[Aib]DFVNWLLAQGPSSGAPPPS-NH2) was tested, and the EC50 [1] was 0.165 nM, the EC50 [2] was > 100 nM and the EC50 [3] was > 5000 nM.
In the case of CC[C@H](C)[C@H](NC(=O)[C@H](CCCN)NC(=O)[C@H](CC(=O)O)NC(=O)[C@H](CC(C)C)NC(=O)[C@](C)(CC(C)C)NC(=O)[C@@H](NC(=O)[C@H](CO)NC(=O)[C@H](Cc1ccc(O)cc1)NC(=O)[C@H](CC(=O)O)NC(=O)[C@H](CO)NC(=O)[C@@H](NC(=O)[C@H](Cc1ccccc1)NC(=O)[C@@H](NC(=O)CNC(=O)[C@H](CCC(=O)O)NC(=O)C(C)(C)NC(=O)[C@@H](N)Cc1ccc(O)cc1)[C@@H](C)O)[C@@H](C)CC)[C@@H](C)CC)C(=O)N[C@@H](Cc1c[nH]cn1)C(=O)N[C@@H](CCC(N)=O)C(=O)NC(C)(C)C(=O)N[C@@H](CC(=O)O)C(=O)N[C@@H](Cc1ccccc1)C(=O)N[C@H](C(=O)N[C@@H](CCC(=O)O)C(=O)N[C@@H](Cc1ccc(O)cc1)C(=O)N[C@@H](CCCCNC(=O)COCCOCCNC(=O)COCCOCCNC(=O)CC[C@H](NC(=O)CCCCCCCCCCCCCCCCCCC(=O)O)C(=O)O)C(=O)N[C@@H](CC(C)C)C(=O)N[C@@H](CCC(=O)O)C(=O)NCC(=O)NCC(=O)N1CCC[C@H]1C(=O)N[C@@H](CO)C(=O)N[C@@H](CO)C(=O)NCC(=O)N[C@@H](C)C(=O)N1CCC[C@H]1C(=O)N1CCC[C@H]1C(=O)N1CCC[C@H]1C(=O)N[C@@H](CO)C(N)=O)C(C)C [Example 6], the EC50 [1] is reported as 0.0176 nM, the EC50 [2] is reported as > 5000 nM and the EC50 [3] is reported as > 5000 nM.

Reference: US12723063B2, “GIPR-agonist compounds” (Eli Lilly and Company, priority 2019, dated 2026)
